Patent US5650404A, “Therapeutic composition for pancreatitis” (Senju Pharmaceutical Co., Ltd., priority 1994, dated 1997)
Read-outs that look alike come from different tables or passages of the source.

Columns and labels:
[1] = LD50 (toxicity); settings: rat, in vivo, rats
[2] = test system: ethionine-induced pancreatitis (serum amylase); assay: Effect on serum amylase elevation in ethionine-induced severe pancreatitis; type: in vivo, female BALB/c mice; settings: for serum amylase level, 0 Hr: 0 Hr (start of ethionine-supplemented food, before dosing at 12 h); for serum amylase level, 0 Hr / serum amylase level, 24 Hr / serum amylase level, 48 Hr: p.o., EPC-K 141 mg/10 ml/kg, camostat 100 mg/10 ml/kg, mean ± S.E.; for serum amylase level, 24 Hr: 24 h after beginning of ethionine-supplemented food; for serum amylase level, 48 Hr: 48 h after beginning of ethionine-supplemented food, *1 (EPC-K): p < 0.01 vs distilled water
Description: The therapeutic efficacy of the compound was tested in ethionine-induced pancreatitis which is a model of severe human pancreatitis. The efficacy evaluation was based on the degree of inhibition of the release of amylase into blood which is an indicator of pancreatitis.
(1) Investigational Substance
L-Ascorbyl DL-α-tocopheryl phosphate potassium (briefly, EPC-K) 141 mg/10 ml/kg, p.o.
Camostat monomethanesulfonate (Ono Pharmaceutical) 100 mg/10 ml/kg, p.o.
Animals used: Thirty female BALB/c mice weighing about 18 g as purchased from Japan SLC were used in this experiment. The mice were accommodated in an animal room controlled at 24°±4° C. and 55±15% R. H. and while the animals in the ethionine-induced pancreatitis groups were given low-choline, 0.54 ethionine-supplemented food (prepared by SLC) ad libitum, the animals in the untreated control group were given Labo MR Stock (tradename) (Nihon Nosan Kogyo) ad libitum. Water was freely available for animals in the ethionine pancreatitis groups and the untreated group. The mice were deprived of food 12 hours before commencement of feeding.
Method: Each test substance was administered 12 hours after the beginning of intake of ethionine-supplemented food. Blood sampling was made 24 and 48 hours after the beginning of intake of ethionine-supplemented food and the serum amylase levels were determined.

Compound | LD50 ([1]; iv, i.v., read-out: LD50 i.v.) | LD50 ([1]; po, p.o., read-out: LD50 p.o.) | serum amylase level, 0 Hr [2] | serum amylase level, 24 Hr [2] | serum amylase level, 48 Hr [2] | inhibition of serum amylase elevation (in words) ([2]; 48 h, compared with distilled water group)
Cc1c(C)c2c(c(C)c1OP(=O)(O)OC1=C(O)[C@@H]([C@@H](O)CO)OC1=O)CCC(C)(CCCC(C)CCCC(C)CCCC(C)C)O2 (mixture of isomers) [EPC-K, L-Ascorbyl DL-α-tocopheryl phosphate potassium] | ≥ 100 mg/kg | ≥ 5000 mg/kg | 14573 ± 3132 mU/ml | 12926 ± 2217 mU/ml | 16257 ± 9763 mU/ml | –
CN(C)C(=O)COC(=O)Cc1ccc(OC(=O)c2ccc(NC(=N)N)cc2)cc1 [Camostat monomethanesulfonate] | – | – | 13978 ± 1012 mU/ml | 12628 ± 1542 mU/ml | 36288 ± 13921 mU/ml | no inhibitory effect on amylase elevation
